In patent publication US5352815A, “Agent for suppression and interception of mailard reaction” (Asai Germanium Research Institute Co., Ltd., priority 1992, dated 1994):

Tests used:
[1] = Example 2: AGE formation from F-lysine (model glycosylated protein; absorbance at 420 nm) and F-lysine decomposition (HPLC); format: biochemical
Procedure: The organogermanium compound (1-1) was added to a phosphate buffer solution containing 10 mM of Nα-t-butoxycarbonyl-Nε-fructose-L-lysine(hereinafter abbreviated to F-lysine) as a model glycosylated protein, so that the final concentration became 0, 1, 5, 10 or 50 mM. Then, incubation was conducted at 40° C. for 15 days, after which the formation of AGE was measured by browning degree (absorbance at 420 nm) and the amount of F-lysine decomposed was measured by HPLC to examine the effect of the organogermanium compound (1-1) added.

[2] = Example 1: Mailard reaction of Nα-t-Boc-lysine (model protein) with glucose; AGE formation (absorbance at 420 nm) and Nα-t-Boc-lysine consumption (HPLC); format: biochemical; conditions: 40° C.
Procedure: The organogermanium compound (1-1) was added to a phosphate buffer solution (50 mM, pH 7.4) containing 50 mM of Nα-t-butoxycarbonyl-L-lysine (hereinafter abbreviated to Nα-t-Boc-lysine) as a model protein and 1M of glucose, so that the final concentration became 0, 1, 5 or 10 mM. Then, incubation was conducted at 40° C. for 15 days, after which the formation of AGE was measured by browning degree (absorbance at 420 nm) and the amount of Nα-t-Boc-lysine consumed was measured by high-performance liquid chromatography (hereinafter abbreviated to HPLC) to examine the effect of the organogermanium compound (1-1) added.

[3] = Example 3: decomposition of Amadori rearrangement product formed from ribose and alginine (HPLC); format: biochemical; conditions: 40 mM solution mixed 1:1; 37° C., 24 hours, pH 7.4 (FIG. 6)
Procedure: 20 mg of ribose, 20 mg of alginine and 10 ml of methanol were reacted under refluxing, in a hot bath of 60°-70° C. 10-15 minutes later, 0.1-0.3 ml of acetic acid was added and the reaction was continued for a further 5-10 minutes. Then, the reaction mixture was concentrated under reduced pressure. During the concentration, a small amount of water was added to remove acetic acid. The concentrate was dissolved in 1 ml of water and the solution was subjected to HPLC to collect an Amadori rearrangement product. The product was freeze-dried.
The freeze-dried product of the Amadori rearrangement product was suspended in 4 ml of a sodium phosphate buffer solution (pH 7.4, 0.1M). The suspension was mixed with a sodium phosphate buffer solution containing or not containing 40 mM of the organogermanium compound (1-1), at a 1:1 ratio. The mixture was incubated at 37° C. for 24 hours. Sampling of 0.1 ml was conducted with the lapse of time for immediate analysis by HPLC. When immediate analysis was impossible, the sample was freeze-storedat -20° C.

rats = assay: Acute oral toxicity in rats (LD50); format: in vivo; conditions: oral administration
From the text: (§1) The organogermanium compound (1) used in the present agent has very low toxicity. In the case of oral administration of the compound (1-1), the LD50 is 6 g or more for mice and 10 g or more for rats.

[4] = Example 5: general observations in Streptozocin-diabetic rats (blood sugar, body weight, water, food); format: in vivo, Sprague-Dawley female rats; conditions: 100 mg per kg, oral in drinking water; 4, 8 and 14 weeks; vs control group
Procedure: (§2) Streptozocin was intravenously injected into Sprague-Dawley female rats (total 21 rats each weighing 240-270 g) in an amount of 65 mg per kg of body weight to cause diabetes. Then, the rats were divided into two groups, i.e. a control group and an administered group. An organogermanium compound (1-1) was put into drinking water and orally administered to the administered group at night in an amount of 100 mg per kg of body weight.
Incidentally, during the test period, i.e. 4, 8 and 14 weeks after the administration of the organogermanium compound (1-1), there was no difference in blood sugar in hungry state, body weight, amount of water taken and amount of food taken, between the two groups.

tail tendon collagen = assay: Example 5: fluorescence of tail tendon collagen in Streptozocin-diabetic rats; format: in vivo, Sprague-Dawley female rats; conditions: 100 mg per kg, oral in drinking water; 14 weeks
Procedure: as §2
(§3) 14 weeks after the administration of the organogermanium compound (1-1), all the rats were killed to collect the skin of abdomen and the tendon of tail. Collagen was extracted from each skin and each tendon and treated with collagenase for solubilization. Each of the solubilized collagens was measured for fluorescence at an excitation wavelength of 370 nm and an absorption wave length of 440 nm. At the same time, hydroxyproline was measured by HPLC; a collagen amount was calculated; and the adjustment of fluorescent intensity was made using the value.

abdomen skin collagen = assay: Example 5: fluorescence of abdomen skin collagen in Streptozocin-diabetic rats; format: in vivo, Sprague-Dawley female rats; conditions: 100 mg per kg, oral in drinking water; 14 weeks
Procedure: as §2, §3

Fructosamine in serum = assay: Example 6: serum Fructosamine in diabetes patients; format: in vivo, human (diabetes patients); conditions: 750 mg/day for 2 months; 20 diabetes patients (FIG. 11)
Procedure: An organogermanium compound (1-1) was administered to 20 diabetes patients (they were diagnosed as diabetes by a 75-g grape sugar loading test) at a dose of 750 mg/day for 2 months. Fructosamine content in serum of each patient was measured before and after the administration.
Fructosamine content in serum was measured by an ordinary method, i.e. by adding a test sample or a reference (a standard Amadori rearrangement product) to a NTB solution, subjecting the mixture to incubation at 37° C., and measuring the developed color.

proteins in plasma = assay: Example 4: glycation of plasma proteins in Streptozocin-diabetic rats; format: in vivo, Sprague-Dawley female rats; conditions: 100 mg per kg, oral in drinking water
Procedure: as §2
4, 8 and 14 weeks after the administration of the organogermanium compound (1-1), blood sampling was made from all the rats of the two groups in hungry state. Each blood taken was measured for blood sugar, glucohemoglobin (hereinafter abbreviated to GHb), glycated albumin (hereinafter abbreviated to GA) and Fructosamine (hereinafter abbreviated to Fru). GHb was measured by affinity chromatography using a mini column, and GA was measured by HPLC using two different columns. The body weight, amount of water taken and amount of food taken, of each rat were also recorded simultaneously.

mice = assay: Acute oral toxicity in mice (LD50); format: in vivo; conditions: oral administration
From the text: as §1

## N=C(N)NN [aminoguanidine, reference compound]
[1]; compared with compound (1-1), used in its place
  effect in the test of Example 2 (AGE formation and F-lysine consumption): substantially no effect

## O=C(O)C[CH2][Ge](=[O])[O][Ge](=[O])[CH2]CC(=O)O [compound (1-1)]
[2]; 0, 1, 5 or 10 mM, 15 days (FIG. 1)
  suppression of the formation of AGE, concentration dependence: suppressed the formation of AGE dependently upon the concentration
[2]; 10 mM, 15 days, HPLC (FIG. 2)
  consumption of Nα-t-Boc-lysine (suppressed to): about 10%
[2]; 5-10 mM, 15 days, pH 7.4, absorbance at 420 nm (FIG. 1)
  suppression of the formation of AGE: suppressed the formation substantially completely
[3]
  alginine increase and unidentified substance peak increase: substantially seen neither alginine increase nor unidentified substance peak increase
  decrease of the Amadori rearrangement product: very mild
rats
  LD50: ≥ 10 g
[4]
  blood sugar in hungry state: no difference
  body weight, amount of water taken and amount of food taken: no difference
[1]; 50 mM, 40° C., 15 days, HPLC (FIG. 4)
  consumption of F-lysine (suppressed to): about 20%
[1]; 5-50 mM, 40° C., 15 days, HPLC (FIG. 4)
  consumption of F-lysine: suppressed the consumption of F-lysine
[1]; 5-50 mM, 40° C., 15 days, absorbance at 420 nm (FIG. 3)
  suppression of the formation of AGE: suppressed the formation of AGE substantially completely
Tail tendon collagen
  fluorescence of tendon collagen vs control group: significantly lower
Abdomen skin collagen
  fluorescence of skin collagen vs control group: significantly lower
Fructosamine in serum
  Fructosamine content in serum after vs before administration: lower after the administration
Proteins in plasma; 8 weeks (FIG. 8)
  Fru (Fructosamine) vs control group: significantly lower in the administered group
Proteins in plasma; 14 weeks
  GA (glycated albumin) vs control group: significantly lower in the administered group
Proteins in plasma; 14 weeks, compared with 8 weeks
  Fru (Fructosamine) difference vs control group: the difference was more significant in 14 weeks
Proteins in plasma; test period, vs control group
  body weight, amount of water taken and amount of food taken: no difference
Proteins in plasma; vs control group
  GHb (glucohemoglobin): lower in the administered group
  blood sugar in hungry state: no difference
mice
  LD50: ≥ 6 g
